From US12529017B2, “Detergent composition comprising a lipase” (Novozymes A/S, priority 2020, dated 2026) come the findings set out here.

The assay in a line: Butyric acid release (odor) from lipase washed butter swatches by SPME-GC, Model E1 detergent. As for the experimental part: The butyric acid release (odor) from the lipase washed swatches were measured by Solid Phase Micro Extraction Gas Chromatography (SPME-GC) using the following method.
40 mL of Model E1 detergent wash liquor was added to a 50 mL test tube. CS-10 butter swatches (CFT) were prepared from 5×5 cm swatches as round punch-outs with a 2-cm diameter. The butter swatches were prepared using methods similar to those described in Example 1. Lipase and methyl ricinoleate (Sigma-Aldrich R8750) were added to the tubes according to the table below, followed by the addition of 10 steel balls and 2 CS-10 swatches per tube. The tubes were continuously agitated at 40 rpm for 25 minutes at 20° C. The samples were then rinsed with cold water for 5 min and finally dried on filter paper for 16 hours.
The dried CS-10 swatches were transferred to Gas Chromatograph (GC) vials, which were then sealed. The samples were incubated at 30° C. for 24 hours, heated to 140° C. for 30 minutes, and stored at 20-25° C. for at least 4 hours before analysis. The analyses were performed on a Shimadzu Nexis GC-2030 equipped with a Carboxen PDMS SPME fiber (85 μm). Sampling from each GC vial was performed at 50° C. for 8 minutes with the SPME fiber in the head-space over the textile pieces as the sampled compounds were subsequently injected onto the column (injector temperature=250° C. Column flow=2 mL helium/minute. Column over temperature gradient: 0 minute=50° C., 2 minutes=50° C., 6 minutes 45 seconds=240° C.). Detection was performed using a Flame Ionization Detector (FID). Retention time for butyric acid was identified using an authentic standard. The area of each peak was measured and compared to the area of the reference peak (Lipase 2, no methyl ricinoleate). The data presents the peak sizes as the % peak size relative to the corresponding peak size from the Lipase 2 alone wash conditions. The experiment was performed twice. The Coefficient of Variation (CV) was 5%.

As for `CCCCCC[C@@H](O)C/C=C\CCCCCCCC(=O)OC` [Methyl ricinoleate, methyl ricinoleate], the “Butyric acid peak size normalized to lipase alone (%)” value is on record as 88% (methyl ricinoleate 1 mM, with Lipase 2, 25 minutes at 20° C.); 0% (methyl ricinoleate 1 mM, without Lipase 2, 25 minutes at 20° C.); 89% (methyl ricinoleate 5 mM, with Lipase 2, 25 minutes at 20° C.); 0% (methyl ricinoleate 5 mM, without Lipase 2, 25 minutes at 20° C.).

B1: Lipase 2: Thermomyces lanuginosus lipase (TLL) SEQ ID NO: 1 with substitutions E1C+D27R+G38A+F51V+D96E+K981+D111A+G163K+H198S+Y220F+T231R+N233C+D254S+P256T (Novozymes A/S) (protein, listed as Thermomyces lanuginosus)
chain: CVSQDLFNQFNLFAQYSAAAYCGKNNRALAGTNITCTANACPEVEKADATVLYSFEDSGVGDVTGFLALDNTNKLIVLSFRGSRSIENWIGNLNFELIEINDICSGCRGHAGFTSSWRSVADTLRQKVEDAVREHPDYRVVFTGHSLGGALATVAGADLRGNKYDIDVFSYGAPRVGNRAFAEFLTVQTGGTLYRITSTNDIVPRLPPREFGYSHSSPEFWIKSGTLVLVRRCDIVKIEGIDATGGNNQPNIPSITAHLWYFGLIGTCL
modifications: mat_peptide (1)..(269)
Turning to B1, the “Butyric acid peak size normalized to lipase alone (%)” value (Lipase 2 alone, no methyl ricinoleate (reference peak), 25 minutes at 20° C.) came out at 100%.
